Experimental data taken from patent publication US9090617B1, “Agonists of Src homology-2 containing protein tyrosine phosphatase-1 and treatment methods using the same” (National Taiwan University, priority 2011, dated 2015).
Entries after “also recorded” stand apart in the source; their conditions may differ. Where two headings read alike, the source gives them in different places.

Columns and labels:
SHP-1 [1] = molecular target: T1, SHP-1 (Homo sapiens, UniProt P29350); experiment: Phosphatase activity of SHP-1 immunoprecipitated from PLC5 cells, incubated with compound in vitro; assay type: biochemical; design: PLC5 protein extract was incubated with anti-SHP-1 antibody in immunoprecipitation buffer overnight; endogenous in cells; host or cells: PLC5 (PLC/PRF/5)
Method: PLC5 protein extract was incubated with anti-SHP-1 antibody in immunoprecipitation buffer overnight. Protein G Sepharose 4 Fast flow (GE Healthcare Bio-Science) was added to each sample, followed by incubation for 3 hours at 4° C. with rotation. […] RediPlate 96 EnzChek Tyrosine Phosphatase Assay kit (R-22067) was used for SHP-1 activity assay (Molecular Probes).

HCC-bearing mice = experiment: Antitumor effect of SC-43 in HCC-bearing mice; conditions: mouse, in vivo
Method: SHP-1/STAT3-related signaling pathway acts as a vital target for the anti-tumor effect of SC-43. See FIG. 22 (A) the cytotoxicity of SC-43 in HCC cells, (B) the antitumor effect of SC-43 in HCC-bearing mice, (C) the activity of SHP-1 induced by SC-43, and (D) Western blot analysis of p-STAT3 and STAT3 in HCC cells treated by SC-43 (10 μM and 20 μM).

HCC cells [2] = experiment: Apoptosis analysis by flow cytometry (sub-G1); assay type: cell-based; conditions: for apoptosis (sub-G1): HCC cells, 24 h
Method: Apoptotic cells were measured by flow cytometry (sub-G1). After treatment with various compounds, cells were trypsinized, collected by centrifugation and resuspended in PBS. After centrifugation, the cells were washed in PBS and resuspended in […] (PI) staining solution. Specimens were incubated in the dark for 30 min at 37° C. and then analyzed with an EPICS Profile II flow cytometer (Coulter Corp., Hialeah, Fla.). All experiments were performed in triplicate
Collected cells were fixed in 75% Ethanol and stained with 20 ug/ml Propidium Iodide (PI). Sub-G1 analysis was performed by flow-cytometry. […] Points, mean; bars, SD (n=6).

[3] = Pharmacokinetics of SC-43; assay type: in vivo; conditions: compared with literature report for sorafenib
Method: (§1) We established an HCC orthotopic model using luc2-expressed PLC5 cells inoculated into liver of nude mice. […] To further correlate the molecular mechanism with the anticancer effect in vivo, p-STAT3 and SHP-1 activity in tumor extract from vehicle- and SC-treated mice was analyzed by immunoblotting. […] The pharmacokinetics of SC-43 was determined (FIG. 25E).

HCC cells [4] = experiment: cells
Source text: Points, mean; bars, SD (n=6).
Points, mean; bars, SD ([…]). […] The N-SH2 domain is in orange, the C-SH2 domain is in marine, the PTP domain is in hot pink, and the linkers between them are in gray. […] ELISA, enzyme-linked immunosorbent assay.

phospho-STAT3 (Tyr705) = experiment: Phospho-STAT3 (Tyr705) sandwich ELISA; assay type: cell-based
Method: A PathScan Phospho-Stat3 (Tyr705) Sandwich ELISA Kit was used for the detection of phospho-STAT3 (Cell Signaling, Danvers, Mass.). Cells were pre-treated with IL-6 1 ng/ml and then exposed with various compounds at 10 μM for 24 h. After incubation with cell lysates, both non-phospho- and phospho-Stat3 proteins are captured by the coated antibody. The expression of phospho-STAT3 was measured at 450 nm absorbance.
The decreased level of P-STAT3 induced by these derivatives was correlated with cell toxicity. In the other words, these derivatives induced cell death in part through inhibition of STAT3.
We also assayed the activation status of p-STAT3 by STAT3 ELISA. […] SC-1 or sorafenib-treated cell extracts were incubated with antibody against phosphorylated STAT3 at Y705. […] To evaluate the transcriptional activity, STAT3-binding region was cloned into Luc reporter. […] The firefly luciferase activity was evaluated and normalized by Renilla luciferase.
p-STAT3 activity: PLC5 cells treated with SC derivatives were collected in RIPA buffer and analyzed in p-STAT3 ELISA kit. The assay protocol follows the manufacturer.

[5] = tested on: p-STAT3, cyclin D1, survivin, Mc1-1; experiment: Western blot of STAT3-related proteins in HCC cells; assay type: cell-based; conditions: HCC cells, 24 h
Method: Cells were treated with various compounds at 5 and 10 μM for 24 h. Cell lysates were analyzed by western blot.
HCC cells treated with SC-43 (10 μM for 24 h) were collected with RIPA lysis buffer. Antibodies for immunoblotting such as cyclin D1 was purchased from Santa Cruz Biotechnology. Other antibodies such as survivin, phospho-STAT3 (Tyr705), STAT3, Mc1-1, SOCS1, and SOCS3 were from Cell Signaling.

[6] = tested on: PLC5/luc2 orthotopic tumors; experiment: HCC orthotopic model with PLC5/luc2 cells; assay type: in vivo, mice; conditions: 10 mg/kg/day orally
Method: All experimental procedures using these mice were done in accordance with protocols approved by the Institutional Laboratory Animal Care and Use Committee of National Taiwan University. Each mouse was inoculated within liver […] with 1×10^4 PLC5/luc cells suspended in 0.1 mL of serum-free medium containing 50% Matrigel (BD Biosciences). […] Tumor growth was monitored by non-invasive in vivo imaging system (IVIS) image system twice weekly.
as §1

[7] = tested on: MDAMB231, MDAMB468, MCF-7, HL-60, KG-1 and ML-1; experiment: Anti-proliferation in breast cancer and leukemia cell lines; assay type: cell-based; conditions: MDAMB231, MDAMB468, MCF-7, HL-60, KG-1, ML-1
Method: The Huh-7 HCC cell line was obtained from the Health Science Research Resources Bank (Osaka, Japan; JCRB0403). The PLC/PRF/5 (PLC5), Sk-Hep-1, and Hep3B cell lines were obtained from American Type Culture Collection (Manassas, Va.). The cells were maintained in DMEM supplemented with 10% FBS, 100 units/mL penicillin G, 100 μg/mL streptomycin sulfate and 25 μg/mL amphotericin B in a 37° C. humidified incubator in an atmosphere of 5% CO2 in air. Other cell lines, including breast cancer cells e.g. MDAMB231, MDAMB468, MCF-7, and leukemia cancer cells e.g. HL-60, KG-1 and ML-1 are also provided for the assays described below.
We also examed the effects of SC-1 and SC-43 in other cancer cell lines, including breast cancer cell lines e.g. MDAMB231, MDAMB468, MCF-7, and leukemia cancer cell lines e.g. HL-60, KG-1 and ML-1.

SHP-1 [8] = molecular target: T1, SHP-1; experiment: Phosphatase activity of recombinant SHP-1; assay type: biochemical; conditions: 25 ng protein, 30 minutes
Method: RediPlate 96 EnzChek Tyrosine Phosphatase Assay kit (R-22067) was used for SHP-1 activity assay (Molecular Probes). Recombinant SHP-1 protein (25 ng) was incubated with either SC-43 or SC-40 at the indicated dose for 30 minutes and then analyzed by SHP-1 phosphatase activity.

PLC5 tumors = experiment: Subcutaneous PLC5 xenograft; assay type: in vivo, mice; conditions: 10 mg/kg/day orally
Method: All experimental procedures using these mice were done in accordance with protocols approved by the Institutional Laboratory Animal Care and Use Committee of National Taiwan University. Each mouse was inoculated s.c. in the dorsal flank with 1×10^6 PLC5 cells suspended in 0.1 mL of serum-free medium containing 50% Matrigel (BD Biosciences). When tumors reached 100 to 200 mm3, mice received SC-40 tosylate (10 or 20 mg/kg) orally once daily. Tumors were measured weekly using calipers, and their volumes were calculated using the following standard formula: width×length×height×0.52.
as §1

Huh-7 tumors = tested on: Huh-7 tumors
Method: Male NCr athymic nude mice (5-7 weeks of age) were obtained from the National Laboratory Animal Center (Taipei, Taiwan). All experimental procedures using these mice were performed in accordance with protocols approved by National Taiwan University. […] Controls received vehicle (Chen K F et al. Cancer Res. 2008; 68:6698-6707).

STAT3 = STAT3 luciferase reporter assay; assay type: cell-based; conditions: 10 μM, 24 h
Method: Cells were seeded in 96-well plate and pre-treated with IL-6 at the dose […] for 30 min. The STAT3 reporter kit was purchased from SABiosciences (Frederick, Md.).
STAT3 reporter assay: PLC5 cells were seeded in a 96-well plate. Cells were pretransfected with STAT3 reporter construct for 24 h and treated with derivatives for another 24 h. The STAT3 Reporter Kit was purchased from SABiosciences.

PLC5 cells = experiment: MTT assay for cell growth inhibition in PLC5 cells; assay type: cell-based
Method: These compounds were analyzed by MTT assay for cell growth inhibition in the PLC5 cells.
Next, we changed the pyridine to a quinoline ring and amide linker to generate compounds 12-25. These compounds were also analyzed by MTT assay for cell growth inhibition in the PLC5 cells.

Raf-1 = molecular target: T2, Raf-1 (Homo sapiens, UniProt P04049); experiment: Raf-1 kinase activity in lysates of treated cells; assay type: cell-based
T2 construct: Raf-1 immunoprecipitated from PLC5 cell extracts was incubated with MEK recombinant protein; endogenous in cells; host or cells: PLC5
Source text: (§2) The RediPlate 96 EnzChek® Tyrosine Phosphatase Assay Kit (R-22067) was used for SHP-1 activity assay (Molecular Probes, Carlsbad, Calif.). The Raf-1 kinase cascade assay kit (Upstate-Millipore, Billerica, Mass.) was used to examine the Raf-1 kinase activity. The JAK2 kinase activity kit was purchased from Reaction Biology Corp. (Malvern, Pa.).

JAK2 = molecular target: T3, JAK2 (Homo sapiens, UniProt O60674); experiment: JAK2 kinase activity; assay type: cell-based; conditions: PLC5 cells, 10 μM, 24 h
T3 construct: endogenous in cells; host or cells: PLC5
Source text: as §2

T1 sequence (P29350 whole entry): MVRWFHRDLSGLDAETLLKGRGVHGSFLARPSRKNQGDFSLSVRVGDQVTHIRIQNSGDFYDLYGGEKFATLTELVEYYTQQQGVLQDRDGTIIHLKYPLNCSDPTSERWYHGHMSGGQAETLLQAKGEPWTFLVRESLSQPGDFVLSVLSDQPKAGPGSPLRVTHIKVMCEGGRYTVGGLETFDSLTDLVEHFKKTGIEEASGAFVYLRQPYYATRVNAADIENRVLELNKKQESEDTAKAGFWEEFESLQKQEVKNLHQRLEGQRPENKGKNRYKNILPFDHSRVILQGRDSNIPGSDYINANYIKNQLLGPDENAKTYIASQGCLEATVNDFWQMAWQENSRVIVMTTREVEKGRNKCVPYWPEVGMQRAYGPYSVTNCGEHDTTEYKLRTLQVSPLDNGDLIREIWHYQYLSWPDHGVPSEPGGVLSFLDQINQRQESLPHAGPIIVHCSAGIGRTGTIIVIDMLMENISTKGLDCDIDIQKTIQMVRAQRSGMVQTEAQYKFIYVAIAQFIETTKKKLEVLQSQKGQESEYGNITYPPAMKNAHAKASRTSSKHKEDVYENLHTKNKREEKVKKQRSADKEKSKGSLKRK
T2 sequence (P04049 whole entry): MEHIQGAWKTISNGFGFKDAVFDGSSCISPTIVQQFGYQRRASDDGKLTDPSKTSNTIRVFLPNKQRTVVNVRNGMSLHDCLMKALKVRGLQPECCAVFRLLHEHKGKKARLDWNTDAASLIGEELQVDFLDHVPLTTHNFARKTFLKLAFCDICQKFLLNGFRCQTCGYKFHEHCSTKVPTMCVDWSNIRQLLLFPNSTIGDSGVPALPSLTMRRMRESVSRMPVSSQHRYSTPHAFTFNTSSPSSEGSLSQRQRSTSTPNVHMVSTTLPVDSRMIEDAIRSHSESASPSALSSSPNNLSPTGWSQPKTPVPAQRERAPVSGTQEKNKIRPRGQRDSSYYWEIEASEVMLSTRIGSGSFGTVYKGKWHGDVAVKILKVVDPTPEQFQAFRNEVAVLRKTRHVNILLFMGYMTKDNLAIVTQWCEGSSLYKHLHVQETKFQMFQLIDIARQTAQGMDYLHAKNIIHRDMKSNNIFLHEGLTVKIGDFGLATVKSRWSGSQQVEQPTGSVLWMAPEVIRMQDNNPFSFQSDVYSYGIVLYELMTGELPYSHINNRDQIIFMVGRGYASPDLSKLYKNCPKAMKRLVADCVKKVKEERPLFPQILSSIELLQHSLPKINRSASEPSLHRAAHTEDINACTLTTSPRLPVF
T3 sequence (O60674 whole entry): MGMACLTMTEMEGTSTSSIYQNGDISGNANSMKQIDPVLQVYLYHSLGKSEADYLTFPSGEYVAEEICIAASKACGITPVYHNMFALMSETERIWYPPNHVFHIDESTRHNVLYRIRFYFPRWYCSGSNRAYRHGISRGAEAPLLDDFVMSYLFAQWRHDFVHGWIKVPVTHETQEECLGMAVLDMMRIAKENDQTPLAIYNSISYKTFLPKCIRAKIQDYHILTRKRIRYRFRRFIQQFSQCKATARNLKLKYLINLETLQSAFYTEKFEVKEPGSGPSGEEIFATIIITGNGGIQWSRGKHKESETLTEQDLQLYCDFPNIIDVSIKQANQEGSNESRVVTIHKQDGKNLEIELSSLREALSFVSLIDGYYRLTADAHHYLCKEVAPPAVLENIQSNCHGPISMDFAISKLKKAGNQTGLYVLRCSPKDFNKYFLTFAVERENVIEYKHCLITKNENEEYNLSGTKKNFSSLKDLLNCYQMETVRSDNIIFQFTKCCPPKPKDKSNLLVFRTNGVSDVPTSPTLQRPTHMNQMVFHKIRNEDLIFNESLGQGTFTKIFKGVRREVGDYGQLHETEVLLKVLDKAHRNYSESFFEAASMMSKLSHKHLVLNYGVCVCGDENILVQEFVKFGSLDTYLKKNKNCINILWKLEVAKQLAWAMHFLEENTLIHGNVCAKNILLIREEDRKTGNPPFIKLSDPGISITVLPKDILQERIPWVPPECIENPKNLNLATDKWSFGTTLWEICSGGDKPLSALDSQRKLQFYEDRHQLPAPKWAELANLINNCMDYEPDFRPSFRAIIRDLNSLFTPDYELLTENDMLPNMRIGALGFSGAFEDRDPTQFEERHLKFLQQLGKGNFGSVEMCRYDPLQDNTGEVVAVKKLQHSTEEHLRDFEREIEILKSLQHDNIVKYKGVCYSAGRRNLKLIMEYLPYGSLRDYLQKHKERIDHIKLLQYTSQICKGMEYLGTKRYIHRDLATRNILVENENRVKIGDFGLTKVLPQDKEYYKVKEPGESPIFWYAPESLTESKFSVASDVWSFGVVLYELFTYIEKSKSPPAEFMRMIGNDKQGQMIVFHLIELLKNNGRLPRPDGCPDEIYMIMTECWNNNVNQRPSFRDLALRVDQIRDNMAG

N#Cc1ccc(Oc2cccc(NC(=O)Nc3ccc(Cl)c(C(F)(F)F)c3)c2)cc1 [SC-43, 1-(3-(4-cyanophenoxyl)phenyl)-3-(4-chloro-3-(trifluoromethyl)phenyl)urea]
phosphatase activity of SHP-1 in vitro (SHP-1 [1]; SHP-1-containing PLC5 extract, 10 or 100 nmol/L, 30 min, 4° C.): increase phosphatase activity of SHP-1 in vitro
tumor growth inhibition in HCC-bearing mice (HCC-bearing mice): significantly causes tumor growth inhibition in HCC-bearing mice
apoptosis (sub-G1) (HCC cells [2]): show significant anti-cancer effects in HCC cells
apoptosis in sorafenib-resistant cells (HCC cells [2]; sorafenib-resistant HCC cells (SR1)): resulted in significant apoptosis in sorafenib-resistant cells at submicromolar concentrations
stability in vivo (pharmacokinetics) [3]: exhibited a longer period of stability in vivo than that reported for sorafenib
viability of HCC cells / cytotoxicity (HCC cells [4]; 72 h): showed lower 50% inhibitory concentration, compared to sorafenib
IC50 (HCC cells [4]; read-out: IC50, cytotoxicity in HCC cells): ~0.5 µM
p-STAT3 / STAT3 activity (phospho-STAT3 ELISA and luciferase reporter) (phospho-STAT3 (Tyr705); PLC5 cells): induce strong inhibition of p-STAT3 activity; also recorded: showed more potent inhibition of the p-STAT3-related signaling pathway
p-STAT3 and STAT3-related proteins (Western blot) [5]: down-regulates phospho-STAT3-related signaling pathway in HCC; also recorded: shows better inhibition of p-STAT3-related signaling pathway than sorafenib; also recorded: revealed submicromolar inactivation of p-STAT3, relative to sorafenib
anti-HCC effect and survival in orthotopic model [6]: had an evident anti-HCC effect and significant survival benefit
growth of breast cancer and leukemia cell lines [7]: effective in inhibiting the growth of cancer cells
phosphatase activity of recombinant SHP-1 (SHP-1 [8]): increase phosphatase activity of SHP-1 in vitro
p-STAT3 and SHP-1 activity in PLC5 tumor lysate (PLC5 tumors): Down-regulation of p-STAT3 and elevation of SHP-1 activity
average tumor size versus control mice at the end of treatment (PLC5 tumors; SC PLC5 tumor-bearing mice): less than half that of control mice

N#Cc1ccc(Oc2ccc(NC(=O)Nc3ccc(Cl)c(C(F)(F)F)c3)cc2)cc1 [Compound 1, 1-(4-Chloro-3-(trifluoromethyl)phenyl)-3-(4-(4-cyanophenoxyl)phenyl)urea]
activity of SHP-1 in SHP-1 immunoprecipitates incubated with drug (SHP-1 [1]; PLC5 lysates, incubated 6 hours): increase the activity of SHP-1
apoptosis (sub-G1) (HCC cells [2]): showed a significant increase in sub-G1 phase population
viability of HCC cells / cytotoxicity (HCC cells [4]): decreased the viability of various HCC cells
P-STAT3 state by ELISA (phospho-STAT3 (Tyr705); PLC5 cells, IL-6 stimulated, 10 uM, 24 h): showed a high degree of dephosphorylation of STAT3; also recorded: exhibited the same level of downregulation of P-STAT3 as sorafenib did
activity of p-STAT3 by STAT3 ELISA (phospho-STAT3 (Tyr705); Sk-Hep1 cells pre-treated with IL-6, 24 h): decreased the activity of p-STAT3 significantly
tumor size relative to vehicle-treated mice at the end of treatment (Huh-7 tumors; Huh-7 xenograft, 10 mg/kg p.o. once daily): 25%
SHP-1 activity in Huh-7 tumors (Huh-7 tumors; tumor extract): induced significant rising of SHP-1 activity
p-STAT3 in Huh-7 tumors (Huh-7 tumors; tumor extract, Western blot): down regulated p-STAT3
transcription activity of STAT3 (Luc reporter) (STAT3): transcription activity of STAT3 was significantly decreased
p-STAT3 and STAT3-related proteins (Western blot) [5]: down-regulated p-STAT3 at Y705 residue and suppressed Mc1-1 and cyclin D1
IC50 (PLC5 cells): 7.5 µM
growth of breast cancer and leukemia cell lines [7]: effective in inhibiting the growth of cancer cells
Raf-1 activity versus vehicle control (Raf-1; PLC5 cells (FIG. 3)): showed the same Raf-1 activity as vehicle control
inhibition of Raf-1 activity (Raf-1; Raf-1 immunoprecipitated from PLC5 or Hep3B cell extracts, 10 μM, 24 h): did not inhibit the activity of Raf-1
kinase activity of JAK2 (JAK2): neither sorafenib nor SC-1 altered the kinase activity of JAK2
expression of p-VEGFR2 (Tyr1175) (p-VEGFR2 (Tyr1175)): did not have significant effect
